For orientation: IC50 means the midpoint of a concentration-inhibition curve.

The target in the experiment is T1, UGT8 (Homo sapiens, UniProt Q16880).
T1 construct: host or cells: OE19 cells
T1 sequence (Q16880 21-541): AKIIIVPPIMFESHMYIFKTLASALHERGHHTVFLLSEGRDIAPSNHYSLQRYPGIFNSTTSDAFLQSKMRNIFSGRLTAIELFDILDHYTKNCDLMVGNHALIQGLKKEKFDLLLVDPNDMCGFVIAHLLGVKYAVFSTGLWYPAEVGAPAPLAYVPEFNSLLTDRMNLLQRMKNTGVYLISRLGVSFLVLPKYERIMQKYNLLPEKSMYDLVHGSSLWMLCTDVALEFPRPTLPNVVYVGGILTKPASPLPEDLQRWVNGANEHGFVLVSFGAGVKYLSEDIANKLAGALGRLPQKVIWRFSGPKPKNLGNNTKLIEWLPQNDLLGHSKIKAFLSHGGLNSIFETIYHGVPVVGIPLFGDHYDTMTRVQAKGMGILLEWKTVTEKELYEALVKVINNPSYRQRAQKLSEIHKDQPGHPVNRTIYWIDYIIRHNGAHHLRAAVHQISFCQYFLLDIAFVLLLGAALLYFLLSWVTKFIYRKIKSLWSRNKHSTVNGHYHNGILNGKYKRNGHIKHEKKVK
Put plainly: In vitro sulfatide (SFT) synthesis inhibition in OE19 cells, LC-MS/MS readout. The experiment is classed as cell-based. Conditions: 72 hr, sulfatide by LC-MS/MS, read-out: Potency range (IC50, In-vitro SFT). The protocol: For medium throughput screening, library compounds were dispensed into CellBIND 384 well plates to a final concentration of 10 μM. OE19 cells (Sigma) were grown in to 70-90% confluency in RPMI 1640+L-glutamine and […]; were trypsinized to achieve suspension and were aliquoted at 2,500 cells/well, total well volume 50 μl. Plates were incubated 72 hr at 37° C. in 5% CO2; supernatant was removed and plates were dried, heat-sealed and stored at −20° C. until analysis.
For IC50 determinations, the same procedure was followed except that test compounds were added to the plate as dose-downs in triplicate to yield concentration response curves.
Mass Spectrometer Analysis of Sulfatide (SFT):
Assay plates were thawed and 85 μl mobile phase B (5 mM ammonium formate^+0.2% formic acid in 50:50 methanol:acetonitrile). Fifteen μl 20 ng/ml C17 SFT in mobile phase B was added as an internal standard.
SFT was analyzed using an Applied Biosystems API-4000 triple quad mass spectrometer interfaced to a Thermo Scientific Multiplex system (LX-4) equipped with four pumps. Chromatography of OE19 cell samples or 2B5-mouse cells treated with compounds was performed using a Waters Acquity UPLC BEH C8 2.1×50 mm column with 1.7 um particle size. The chromatography was performed using the following mobile phases. Mobile phase A (MPA): 0.2% formic acid and 5 mM ammonium formate in deionized water; MPB: see above. The LC method was run in isocratic mode for 4 sequentially running columns using 95% MPB and 5% MPA with flow rate of 1 ml/min and a column temperature of 60° C.
The Triple quad mass spectrometer was run in Negative Ionization mode monitoring the following MRM transitions and using the following parameters:
Electrospray voltage was […], and source temperature was 550° C.

Regarding `CNC(=O)c1csc2c(C(F)(F)F)cc(N3CC4(CN(C(=O)OC(C)CC#N)C4)C3)nc12` (stereo not drawn) [Example 350, 1-Cyanopropan-2-yl 6-(3-(methylcarbamoyl)-7-(trifluoromethyl)thieno[3,2-b]pyridin-5-yl)-2,6-diazaspiro[3.3]heptane-2-carboxylate], the IC50 is under 100 nM.

Consider `CNC(=O)c1csc2c(C(F)(F)F)cc(N3CC[C@@H](OC(=O)NC(C)C)[C@H](F)C3)nc12` [Example 495, (3R,4R)-3-Fluoro-1-(3-(methylcarbamoyl)-7-(trifluoromethyl)thieno[3,2-b]pyridin-5-yl)piperidin-4-yl isopropylcarbamate], for which the IC50 was under 100 nM.

Take `CNC(=O)c1csc2c(C(F)(F)F)cc(N3CC(NC(=O)OC(C)(C)C)C3)nc12` [Example 300, tert-Butyl (1-(3-(methylcarbamoyl)-7-(trifluoromethyl)thieno[3,2-b]pyridin-5-yl)azetidin-3-yl)carbamate]: the 50% inhibitory concentration (IC50) is under 100 nM.

Turning to `CCNC(=O)CN1CCN(c2cc(C(F)(F)F)c3scc(C(=O)NC)c3n2)CC1` [Example 25, 5-(4-(2-(Ethylamino)-2-oxoethyl)piperazin-1-yl)-N-methyl-7-(trifluoromethyl)thieno[3,2-b]pyridine-3-carboxamide], the IC50 fell in the range of 100 to 1000 nM.

With `CNC(=O)c1c(C)sc2c(C(F)(F)F)cc(N3CCC(OC(=O)NCC4CC4)CC3)nc12` [Example 415, 1-(2-Methyl-3-(methylcarbamoyl)-7-(trifluoromethyl)thieno[3,2-b]pyridin-5-yl)piperidin-4-yl (cyclopropylmethyl)carbamate], the half-inhibitory concentration (IC50) is under 100 nM.

As for `CCNC(=O)c1csc2c(C3CC3)cc(N3CCN(CC(=O)NC(C)C)CC3)nc12` [Example 420, 7-Cyclopropyl-N-ethyl-5-(4-(2-(isopropylamino)-2-oxoethyl)piperazin-1-yl)thieno[3,2-b]pyridine-3-carboxamide], the half-maximal inhibitory concentration (IC50) is over 1000 nM.

Consider `CNC(=O)c1csc2c(C(F)(F)F)cc(OC3CCN(C(=O)OCCOC(F)(F)F)CC3)nc12` [Example 171, 2-(Trifluoromethoxy)ethyl 4-((3-(methylcarbamoyl)-7-(trifluoromethyl)thieno[3,2-b]pyridin-5-yl)oxy)piperidine-1-carboxylate], for which the IC50 is under 100 nM.

Consider `CNC(=O)c1csc2c(C(F)(F)F)c(C)c(O[C@@H]3CCN(C(=O)O[C@@H](C)COC(F)(F)F)C[C@@H]3F)nc12` [Example 181, (S)-1-(Trifluoromethoxy)propan-2-yl (3S,4R)-3-fluoro-4-((6-methyl-3-(methylcarbamoyl)-7-(trifluoromethyl)thieno[3,2-b]pyridin-5-yl)oxy)piperidine-1-carboxylate], for which the IC50 was under 100 nM.

As to `CNC(=O)c1csc2c(C(F)(F)F)cc(N3CCC(OC(=O)N4CC(OC(F)F)C4)CC3)nc12` [Example 87, 1-(3-(Methylcarbamoyl)-7-(trifluoromethyl)thieno[3,2-b]pyridin-5-yl)piperidin-4-yl 3-(difluoromethoxy)azetidine-1-carboxylate], the 50% inhibitory concentration (IC50) was under 100 nM.

On to `CNC(=O)c1csc2c(C(F)(F)F)nc(N3CCC(OC(=O)N[C@@H](C)C4CC4)CC3)nc12` [Example 187, 1-(7-(Methylcarbamoyl)-4-(trifluoromethyl)thieno[3,2-d]pyrimidin-2-yl)piperidin-4-yl-(S)-(1-cyclopropylethyl)carbamate], for which the half-maximal inhibitory concentration (IC50) was under 100 nM.

Consider `CNC(=O)c1csc2c(C)cc(N3CCN(CC(=O)NC(C)C)CC3)nc12` [Example 48, 5-(4-(2-(Isopropylamino)-2-oxoethyl)piperazin-1-yl)-N,7-dimethylthieno[3,2-b]pyridine-3-carboxamide], for which the IC50 fell in the range of 100 to 1000 nM.

Consider `CNC(=O)c1csc2c(C(F)F)cc(N3CCC(OC(=O)NC(C)C)CC3)nc12` [Example 452, 1-(7-(Difluoromethyl)-3-(methylcarbamoyl)thieno[3,2-b]pyridin-5-yl)piperidin-4-yl isopropylcarbamate], for which the concentration for half-maximal inhibition (IC50) is under 100 nM.

Consider `CNC(=O)c1csc2c(C(F)(F)F)cc(OC3CC4(C3)CN(C(=O)O[C@H](C)C3CC3)C4)nc12` [Example 204, (R)-1-Cyclopropylethyl 6-((3-(methylcarbamoyl)-7-(trifluoromethyl)thieno[3,2-b]pyridin-5-yl)oxy)-2-azaspiro[3.3]heptane-2-carboxylate], for which the IC50 was under 100 nM.

Turning to `CNC(=O)c1csc2c(C(F)(F)F)cc(CC3CCN(C(=O)OC(C)(C)C)CC3)nc12` [Example 634, tert-Butyl 4-((3-(methylcarbamoyl)-7-(trifluoromethyl)thieno[3,2-b]pyridin-5-yl)methyl)piperidine-1-carboxylate], the IC50 lay within 100 to 1000 nM.

On to `CNC(=O)c1csc2c(C(F)(F)F)c(C)c(O[C@@H]3CCN(C(=O)OCCOC(F)(F)F)C[C@@H]3F)nc12` [Example 180, 2-(Trifluoromethoxy)ethyl (3S,4R)-3-fluoro-4-((6-methyl-3-(methylcarbamoyl)-7-(trifluoromethyl)thieno[3,2-b]pyridin-5-yl)oxy)piperidine-1-carboxylate], for which the IC50 was under 100 nM.

`CNC(=O)c1csc2c(C(F)(F)F)cc(OC3(C)CN(C(=O)OC(C)(C)C)C3)nc12` [Example 269, tert-Butyl 3-methyl-3-((3-(methylcarbamoyl)-7-(trifluoromethyl)thieno[3,2-b]pyridin-5-yl)oxy)azetidine-1-carboxylate]: the 50% inhibitory concentration (IC50) is 100 to 1000 nM.

Take `CNC(=O)c1csc2c(C(F)(F)F)cc(O[C@@H]3CCN(C(=O)O[C@@H](C)COC(F)(F)F)[C@H](C)C3)nc12` [Example 175, (S)-1-(Trifluoromethoxy)propan-2-yl (2R,4R)-2-methyl-4-((3-(methylcarbamoyl)-7-(trifluoromethyl)thieno[3,2-b]pyridin-5-yl)oxy)piperidine-1-carboxylate]: the 50% inhibitory concentration (IC50) is under 100 nM.

With `CNC(=O)c1csc2c(C(F)(F)F)cc(N3CCC(OC(=O)N4CCn5nccc5C4)CC3)nc12` [Example 95, 1-(3-(Methylcarbamoyl)-7-(trifluoromethyl)thieno[3,2-b]pyridin-5-yl)piperidin-4-yl 6,7-dihydropyrazolo[1,5-a]pyrazine-5(4H)-carboxylate], the IC50 is under 100 nM.

Regarding `CNC(=O)c1csc2c(C(F)(F)F)cc(N3CCN(C(=O)COC(C)C)CC3)nc12` [Example 44, 5-(4-(2-Isopropoxyacetyl)piperazin-1-yl)-N-methyl-7-(trifluoromethyl)thieno[3,2-b]pyridine-3-carboxamide], the IC50 was 100 to 1000 nM.

As for `CNC(=O)c1csc2c(C(F)(F)F)cc(O[C@H]3CCN(C(=O)OC(C)(C)C)C3)nc12` [Example 593, tert-Butyl (S)-3-((3-(methylcarbamoyl)-7-(trifluoromethyl)thieno[3,2-b]pyridin-5-yl)oxy)pyrrolidine-1-carboxylate], the IC50 was in the range of 100 to 1000 nM.

Take `CNC(=O)c1csc2c(C(F)(F)F)c(C)c(O[C@@H]3CCN(C(=O)O[C@@H](C)COC(F)(F)F)[C@H](C)C3)nc12` [Example 176, (S)-1-(Trifluoromethoxy)propan-2-yl (2R,4R)-2-methyl-4-((6-methyl-3-(methylcarbamoyl)-7-(trifluoromethyl)thieno[3,2-b]pyridin-5-yl)oxy)piperidine-1-carboxylate]: the IC50 is under 100 nM.

On to `CNC(=O)c1csc2c(C(F)(F)F)cc(N3CCC(OC(=O)NC(C)C(F)F)CC3)nc12` (stereo not drawn) [Example 670, [1-[3-(Methylcarbamoyl)-7-(trifluoromethyl)thieno[3,2-b]pyridin-5-yl]-4-piperidyl] N-(2,2-difluoro-1-methyl-ethyl)carbamate], for which the IC50 was under 100 nM.

Take `CNC(=O)c1csc2c(C(F)(F)F)cc(N3CCC(OCCN4CCC(F)(F)C4)CC3)nc12` [Example 361, 5-(4-(2-(3,3-Difluoropyrrolidin-1-yl)ethoxy)piperidin-1-yl)-N-methyl-7-(trifluoromethyl)thieno[3,2-b]pyridine-3-carboxamide]: the concentration for half-maximal inhibition (IC50) was under 100 nM.

Consider `CNC(=O)c1csc2c(C(F)(F)F)c(C)c(O[C@H]3CCN(C(=O)O[C@@H](C)COC(F)(F)F)C[C@H]3F)nc12` [Example 183, (S)-1-(Trifluoromethoxy)propan-2-yl (3R,4S)-3-fluoro-4-((6-methyl-3-(methylcarbamoyl)-7-(trifluoromethyl)thieno[3,2-b]pyridin-5-yl)oxy)piperidine-1-carboxylate], for which the IC50 was under 100 nM.

These data come from US11098056B2, “UDP glycosyltransferase inhibitors and methods of use” (GENZYME CORPORATION, priority 2018, dated 2021).
